Experimental data as given in patent US12234207B2, “Halo-(3-(phenylsulfonyl)prop-1-enyl)pyridine derivative and use thereof” (Cureverse Incorporated, priority 2018, dated 2025).
One block for each molecule: values may come before it.

Columns and labels:
Solubility in water = format: physicochemical
Excerpt: In the development of new drugs, the solubility of drugs is one of the very important factors associated with the bio-absorption rate. […] In addition, drugs with low solubility may crystallize in tissues or cause serious toxicity, and thus, the FDA requires additional research results on oral drugs with low solubility. Furthermore, low solubility may also be the biggest cause of failure in the development of candidate materials.

Nrf2 [1] = test: Nrf2 functional cell-based assay (DisoveRx), luminescence; conditions: relative to Compound 15
Nrf2 [2] = test: as above; conditions: for EC50: U2OS cells, 6 hours incubation, concentration that activates by 50% relative to the maximum effect
Description: In order to confirm the pharmacological activity of the compounds synthesized according to Examples 1 to 18 of the present invention, the effects of the synthesized derivatives on inducing the activity of Nrf2, a major regulator of the defense against oxidative stress, were evaluated by constructing an Nrf2 functional cell-based assay (DisoveRx). Specifically, U2OS cells were used, and after the cell pellet was released with CP 0 reagent, the cells were loaded in an amount of 80 μL into a 96-well plate at a density of 1.5×10^4 cells/well and incubated for 24 hours. The compounds synthesized according to Examples 1 to 18 were diluted 3 times in DMSO at 7 different concentrations to prepare a stock solution. 10 μL. of each compound solution was mixed with 90 μL of CP 0 and added in an amount of 20 μL to each well of the 96-well plate, and each experiment was repeated three times. […] Substrate reagents 1 and 2 were added to the cell assay buffer and mixed, and then 50 μL of the substrate reagent was added to a 96-well plate per well, wrapped in foil, and incubated for 1 hour. Thereafter, the luminescence value was measured at all wavelengths and at integration time of 100 ms using a luminescence spectrophotometer (Molecular Devices). […] The results are shown in Table 5 below, and the efficacy of the compounds was compared as a percentage with respect to the sulforaphane-treated group. As another control group, a chalcone derivative, VSC2 ((F)-1-(2-((2-methoxyphenyl)sulfonyl)vinyl)-2-chlorobenzene, Woo et al., J. Med. Chem., 2014, 57:1473-1487), which has a parent structure similar to that of the present invention, and which has been confirmed to induce activation of Nrf2 through the structural changes of Keap1, was used.

CYP 2C19 = molecular target: T1, CYP 2C19 (Homo sapiens, UniProt P33261); test: Inhibition of CYP activity in human liver microsomes, 2C19; format: in vitro ADME; conditions: 10 μM compound, human liver microsomes 0.25 mg/mL; % activity relative to the negative control
T1 construct: from tissue; host or cells: human liver microsomes
T1 sequence (P33261 whole entry): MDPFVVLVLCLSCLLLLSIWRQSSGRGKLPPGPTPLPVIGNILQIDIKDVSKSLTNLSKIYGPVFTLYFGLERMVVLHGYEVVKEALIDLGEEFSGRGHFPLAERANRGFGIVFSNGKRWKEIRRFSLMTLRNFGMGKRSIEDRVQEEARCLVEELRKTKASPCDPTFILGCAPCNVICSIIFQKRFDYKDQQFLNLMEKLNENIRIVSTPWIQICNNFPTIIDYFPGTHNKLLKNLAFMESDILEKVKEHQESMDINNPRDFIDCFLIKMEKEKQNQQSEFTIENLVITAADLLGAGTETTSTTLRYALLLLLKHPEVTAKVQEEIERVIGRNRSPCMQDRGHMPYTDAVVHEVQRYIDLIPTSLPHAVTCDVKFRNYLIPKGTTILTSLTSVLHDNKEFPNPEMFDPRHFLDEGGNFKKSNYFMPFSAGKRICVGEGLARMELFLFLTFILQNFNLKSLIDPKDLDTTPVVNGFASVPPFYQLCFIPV
Description: (§1) Thereafter, the reaction was terminated by adding an acetonitrile solution containing an internal standard substrate (terfenadine), followed by centrifugation (14,000 rpm, 4° C.) for 5 minutes. Subsequently, the supernatant was injected into the LC-MS/MS system, and the metabolites of the substrate drugs were simultaneously analyzed to evaluate the inhibitory ability of these compounds on drug metabolic enzymes. The metabolites of each CYP isoenzyme indicator drug generated through the above reaction were analyzed using the Shimadzu Nexera XR system and TSQ vantage (Thermo). A Kinetex C18 column was used as the HPLC column, and distilled water containing 0.1% formic acid and acetonitrile containing 0.1% formic acid were used as the mobile phase. The generated metabolites were quantified using the quantification mode of multiple reaction monitoring (MRM), and data were analyzed with Xcalibur (version 1.6.1).

CYP 2D6 = molecular target: T2, CYP 2D6 (Homo sapiens, UniProt P10635); test: Inhibition of CYP activity in human liver microsomes, 2D6; format: in vitro ADME; conditions: 10 μM compound, human liver microsomes 0.25 mg/mL; % activity relative to the negative control
T2 construct: from tissue; host or cells: human liver microsomes
T2 sequence (P10635 whole entry): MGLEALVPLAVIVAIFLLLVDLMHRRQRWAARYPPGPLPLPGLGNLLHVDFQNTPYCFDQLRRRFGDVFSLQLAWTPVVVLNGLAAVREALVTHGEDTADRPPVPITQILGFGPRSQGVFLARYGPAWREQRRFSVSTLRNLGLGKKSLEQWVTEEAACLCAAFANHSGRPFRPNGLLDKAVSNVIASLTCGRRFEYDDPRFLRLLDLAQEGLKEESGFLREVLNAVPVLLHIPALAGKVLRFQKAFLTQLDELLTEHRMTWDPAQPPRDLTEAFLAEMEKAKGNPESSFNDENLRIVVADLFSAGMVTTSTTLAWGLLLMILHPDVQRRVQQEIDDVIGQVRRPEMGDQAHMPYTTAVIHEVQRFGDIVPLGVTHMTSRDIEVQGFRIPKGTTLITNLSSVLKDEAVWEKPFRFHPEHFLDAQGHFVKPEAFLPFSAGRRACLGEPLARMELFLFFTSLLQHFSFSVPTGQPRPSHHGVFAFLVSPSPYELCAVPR
Description: as §1

CYP 2C9 = molecular target: T3, CYP 2C9 (Homo sapiens, UniProt P11712); test: Inhibition of CYP activity in human liver microsomes, 2C9; format: in vitro ADME; conditions: 10 μM compound, human liver microsomes 0.25 mg/mL; % activity relative to the negative control
T3 construct: from tissue; host or cells: human liver microsomes
T3 sequence (P11712 whole entry): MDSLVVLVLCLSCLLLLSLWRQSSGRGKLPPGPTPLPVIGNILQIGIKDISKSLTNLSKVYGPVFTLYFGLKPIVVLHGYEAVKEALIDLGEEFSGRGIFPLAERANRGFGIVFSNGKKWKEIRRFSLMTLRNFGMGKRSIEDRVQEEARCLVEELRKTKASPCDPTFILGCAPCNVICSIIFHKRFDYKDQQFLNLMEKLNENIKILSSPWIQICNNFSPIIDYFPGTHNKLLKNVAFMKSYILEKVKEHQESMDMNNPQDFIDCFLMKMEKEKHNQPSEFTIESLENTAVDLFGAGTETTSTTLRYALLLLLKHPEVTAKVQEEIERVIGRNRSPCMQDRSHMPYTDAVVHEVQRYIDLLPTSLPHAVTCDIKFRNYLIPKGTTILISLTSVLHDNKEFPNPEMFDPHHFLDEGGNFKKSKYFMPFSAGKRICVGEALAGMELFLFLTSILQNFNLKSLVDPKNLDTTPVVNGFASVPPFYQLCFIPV
Description: as §1

CYP 1A2 = molecular target: T4, CYP 1A2 (Homo sapiens, UniProt P05177); test: Inhibition of CYP activity in human liver microsomes, 1A2; format: in vitro ADME; conditions: 10 μM compound, human liver microsomes 0.25 mg/mL; % activity relative to the negative control
T4 construct: from tissue; host or cells: human liver microsomes
T4 sequence (P05177 1-516): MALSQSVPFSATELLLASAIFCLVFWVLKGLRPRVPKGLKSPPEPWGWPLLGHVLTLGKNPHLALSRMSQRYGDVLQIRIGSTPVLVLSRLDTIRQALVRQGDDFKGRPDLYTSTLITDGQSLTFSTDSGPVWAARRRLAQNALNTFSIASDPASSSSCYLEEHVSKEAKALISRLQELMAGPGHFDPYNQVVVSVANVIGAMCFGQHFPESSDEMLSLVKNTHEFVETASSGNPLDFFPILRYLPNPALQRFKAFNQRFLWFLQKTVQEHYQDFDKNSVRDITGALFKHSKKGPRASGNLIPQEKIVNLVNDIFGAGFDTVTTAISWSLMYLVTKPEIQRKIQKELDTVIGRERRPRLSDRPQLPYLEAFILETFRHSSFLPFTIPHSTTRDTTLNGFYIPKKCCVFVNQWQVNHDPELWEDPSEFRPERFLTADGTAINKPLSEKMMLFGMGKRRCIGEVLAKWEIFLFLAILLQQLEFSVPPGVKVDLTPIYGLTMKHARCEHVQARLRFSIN
Description: as §1

CYP 3A4 = molecular target: T5, CYP 3A4 (Homo sapiens, UniProt P08684); test: Inhibition of CYP activity in human liver microsomes, 3A4; format: in vitro ADME; conditions: 10 μM compound, human liver microsomes 0.25 mg/mL; % activity relative to the negative control
T5 construct: from tissue; host or cells: human liver microsomes
T5 sequence (P08684 whole entry): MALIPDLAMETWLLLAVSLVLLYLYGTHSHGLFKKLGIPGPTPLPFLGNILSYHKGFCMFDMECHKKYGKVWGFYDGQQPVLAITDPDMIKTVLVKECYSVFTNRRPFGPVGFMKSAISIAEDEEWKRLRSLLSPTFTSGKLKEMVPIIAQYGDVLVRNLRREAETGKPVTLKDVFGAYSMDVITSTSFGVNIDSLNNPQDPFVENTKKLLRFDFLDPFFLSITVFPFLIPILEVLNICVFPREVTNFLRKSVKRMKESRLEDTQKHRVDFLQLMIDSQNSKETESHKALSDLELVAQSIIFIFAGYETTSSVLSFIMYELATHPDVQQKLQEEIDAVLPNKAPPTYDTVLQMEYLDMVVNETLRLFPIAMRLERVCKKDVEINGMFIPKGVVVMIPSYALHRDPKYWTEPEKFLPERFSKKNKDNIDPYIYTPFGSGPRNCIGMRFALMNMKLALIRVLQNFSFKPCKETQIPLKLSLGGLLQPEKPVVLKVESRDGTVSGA
Description: as §1

Structure (SMILES): COc1ccccc1S(=O)(=O)/C=C/c1cccnc1Cl [Comparative Example 2, (E)-2-chloro-3-(2-(2-methoxyphenylsulfonyl)vinyl)pyridine, reference compound]
solubility (Solubility in water): < 10 µg/mL | Effect of inducing Nrf2 activity as % of the level of Compound 15 (Nrf2 [1]): ~10%

Structure (SMILES): O=S(=O)(/C=C/c1ncccc1F)c1ccccc1F [Compound 1, (E)-3-fluoro-2-(2-(2-fluorophenylsulfonyl)vinyl)pyridine]
EC50 (Nrf2 [2]): 176 nM | CYP 2C19 activity (CYP 2C19): 65.9% | CYP 2D6 activity (CYP 2D6): 87.0% | CYP 2C9 activity (CYP 2C9): 100.0% | CYP 1A2 activity (CYP 1A2): 96.0% | CYP 3A4 activity (CYP 3A4): 100.0%

Structure (SMILES): O=S(=O)(/C=C/c1ncccc1F)c1cccc(F)c1 [Compound 2, (E)-3-fluoro-2-(2-(3-fluorophenylsulfonyl)vinyl)pyridine]
EC50 (Nrf2 [2]): 474 nM

Structure (SMILES): O=S(=O)(/C=C/c1ncccc1Cl)c1cccc(F)c1 [Compound 5, (E)-3-chloro-2-(2-(3-fluorophenylsulfonyl)vinyl)pyridine]
EC50 (Nrf2 [2]): 84 nM

Structure (SMILES): O=S(=O)(/C=C/c1ncccc1Cl)c1ccc(F)cc1 [Compound 6, (E)-3-chloro-2-(2-(4-fluorophenylsulfonyl)vinyl)pyridine]
EC50 (Nrf2 [2]): 231 nM

Structure (SMILES): O=S(=O)(/C=C/c1ncccc1F)c1ccccc1Cl [Compound 7, (E)-2-(2-(2-chlorophenylsulfonyl)vinyl)-3-fluoropyridine]
EC50 (Nrf2 [2]): 122 nM

Structure (SMILES): O=S(=O)(/C=C/c1ncccc1F)c1ccc(Cl)cc1 [Compound 9, (E)-2-(2-(4-chlorophenylsulfonyl)vinyl)-3-fluoropyridine]
EC50 (Nrf2 [2]): 286 nM

Structure (SMILES): O=S(=O)(/C=C/c1ncccc1Cl)c1ccccc1Cl [Compound 10, (E)-3-chloro-2-(2-(2-chlorophenylsulfonyl)vinyl)pyridine]
EC50 (Nrf2 [2]): 26 nM | Nrf2 activation effect relative to sulforaphane (Nrf2 [2]; ratio to sulforaphane): ≥ 15 times

Structure (SMILES): O=S(=O)(/C=C/c1ncccc1Cl)c1cccc(Cl)c1 [Compound 11, (E)-3-chloro-2-(2-(3-chlorophenylsulfonyl)vinyl)pyridine]
EC50 (Nrf2 [2]): 46 nM

Structure (SMILES): O=S(=O)(/C=C/c1cccnc1Cl)c1ccccc1Cl [Compound 14, (E)-2-chloro-3-(2-(2-chlorophenylsulfonyl)vinyl)pyridine]
EC50 (Nrf2 [2]): 384 nM

Structure (SMILES): CN1CCN(C(=O)COc2ccc(S(=O)(=O)/C=C/c3ncccc3F)cc2)CC1.Cl [Compound 17, (E)-2-(4-(2-(3-fluoropyridin-2-yl)vinylsulfonyl)phenoxy)-1-(4-methylpiperazin-1-yl)ethanone hydrochloride]
CYP 2C9 activity (CYP 2C9): 122.0%

More lines, in order of falling EC50 (Nrf2 [2]), values ahead:

EC50 (Nrf2 [2]): 542 nM
Structure (SMILES): O=S(=O)(/C=C/c1ncccc1F)c1ccc(F)cc1 [Compound 3, (E)-3-fluoro-2-(2-(4-fluorophenylsulfonyl)vinyl)pyridine]

EC50 (Nrf2 [2]): 198 nM
Structure (SMILES): O=S(=O)(/C=C/c1ncccc1F)c1cccc(Cl)c1 [Compound 8, (E)-2-(2-(3-chlorophenylsulfonyl)vinyl)-3-fluoropyridine]

EC50 (Nrf2 [2]): 147 nM | CYP 2C19 activity (CYP 2C19): 40.0% | CYP 2D6 activity (CYP 2D6): 100.0% | CYP 2C9 activity (CYP 2C9): 100.0% | CYP 1A2 activity (CYP 1A2): 94.0% | CYP 3A4 activity (CYP 3A4): 86.0%
Structure (SMILES): O=S(=O)(/C=C/c1cccc(Cl)n1)c1ccccc1Cl [Compound 13, (E)-2-chloro-6-(2-(2-chlorophenylsulfonyl)vinyl)pyridine]

EC50 (Nrf2 [2]): 65 nM
Structure (SMILES): O=S(=O)(/C=C/c1ncccc1Cl)c1ccc(Cl)cc1 [Compound 12, (E)-3-chloro-2-(2-(4-chlorophenylsulfonyl)vinyl)pyridine]

EC50 (Nrf2 [2]): 30 nM | CYP 2C19 activity (CYP 2C19): 47.3% | CYP 2D6 activity (CYP 2D6): 86.0% | CYP 2C9 activity (CYP 2C9): 62.6% | CYP 1A2 activity (CYP 1A2): 96.0% | CYP 3A4 activity (CYP 3A4): 100.0%
Structure (SMILES): O=S(=O)(/C=C/c1ncccc1Cl)c1ccccc1F [Compound 4, (E)-3-chloro-2-(2-(2-fluorophenylsulfonyl)vinyl)pyridine]
